Measurements reported in US20030073699A1, “Compounds and methods to treat cardiac failure and other disorders” (priority 1998, published 2003).

Legend:
Format in all cases: biochemical
[1] = biological target: p38α (Homo sapiens, UniProt Q16539); test: p38 kinase inhibition assay, activity for p38α; conditions: for IC50: inhibition of p38α, based on IC50 curves; for Fold increase Piperidinyl/Piperazinyl: p38α potency of piperidinyl versus corresponding piperazinyl compound
[2] = biological target: p38 kinase (Homo sapiens, UniProt Q16539); test: Assay for p38 kinase inhibition (Example 19); conditions: tested as described in Example 19
Procedure: (§1) The compounds to be tested were solubilized in DMSO and diluted into water to the desired concentrations. The p38 kinase was diluted to 10 μg/ml into a buffer containing 20 mM MOPS, pH 7.0,25 mM beta-glycerol phosphate, 2 mg/ml gelatin; 0.5 mM EGTA, and 4 mM DTT.
(§2) The reaction was carried out by mixing 20 μl test compound with 10 μl of a substrate cocktail containing 500 μg/ml peptide substrate and 0.2 mM ATP (+200 μCi/ml gamma-32P-ATP) in a 4× assay buffer. The reaction was initiated by the addition of 10 μl of p38 kinase. […] After a 40 minute incubation at room temperature, the reaction was stopped by the addition of 10 μl per reaction of 0.25 M phosphoric acid.
A portion of the reaction was spotted onto a disk of P81 phosphocellulose paper, the filters were dried for 2 minutes and then washed 4× in 75 mM H3PO4. The filters were rinsed briefly in 95% ethanol, dried, then placed in scintillation vials with liquid scintillation cocktail. […]
Counts incorporated are determined on a scintillation counter. Relative enzyme activity is calculated by subtracting background counts (counts measured in the absence of enzyme) from each result, and comparing the resulting counts to those obtained in the absence of inhibitor. IC50 values were determined with curve-fitting plots available with common software packages. Approximate IC50 values were calculated using formula […]

[3] = biological target: p38β (Homo sapiens, UniProt Q15759); test: p38 kinase inhibition assay, specificity versus p38β; conditions: for IC50: read-out: P38-β IC50; for IC50 ratio β/α: specificity for p38α as compared to p38β
Procedure: as §1, §2
A portion of the reaction was spotted onto a disk of P81 phosphocellulose paper, the filters were dried for 2 minutes and then washed 4× in 75 mM H3PO4. The filters were rinsed briefly in 95% ethanol, dried, then placed in scintillation vials with liquid scintillation cocktail.
Alternatively, the substrate is previously biotinylated and the resulting reactions are spotted on SAM^2™ streptavidin filter squares (Promega). The filters are washed 4× in 2M NaCl, 4× in 2M NaCl with 1% phosphoric acid, 2× in water, and briefly in 95% ethanol. The filter squares are dried and placed in scintillation vials with liquid scintillation cocktail.
Counts incorporated are determined on a scintillation counter. Relative enzyme activity is calculated by subtracting background counts (counts measured in the absence of enzyme) from each result, and comparing the resulting counts to those obtained in the absence of inhibitor. IC50 values were determined with curve-fitting plots available with common software packages. Approximate IC50 values were calculated using formula
where A=fractional activity and i=total inhibitor concentration.
The compounds of the invention as well as those containing piperazine, generally, are specific for p38α as compared to p38β. […] It is seen that the specificity for α as opposed to β is generally of the order of ten-fold.

Sequence of p38α (Q16539 whole entry): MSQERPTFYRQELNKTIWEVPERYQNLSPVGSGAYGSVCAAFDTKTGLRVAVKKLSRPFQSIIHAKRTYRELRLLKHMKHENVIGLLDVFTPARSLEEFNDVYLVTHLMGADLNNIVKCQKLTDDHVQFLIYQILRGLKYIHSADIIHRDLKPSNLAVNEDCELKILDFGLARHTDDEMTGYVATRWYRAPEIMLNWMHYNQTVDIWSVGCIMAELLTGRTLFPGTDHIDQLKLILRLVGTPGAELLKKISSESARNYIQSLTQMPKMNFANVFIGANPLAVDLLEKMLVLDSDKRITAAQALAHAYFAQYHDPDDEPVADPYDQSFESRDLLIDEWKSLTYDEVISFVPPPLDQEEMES
Sequence of p38β (Q15759 whole entry): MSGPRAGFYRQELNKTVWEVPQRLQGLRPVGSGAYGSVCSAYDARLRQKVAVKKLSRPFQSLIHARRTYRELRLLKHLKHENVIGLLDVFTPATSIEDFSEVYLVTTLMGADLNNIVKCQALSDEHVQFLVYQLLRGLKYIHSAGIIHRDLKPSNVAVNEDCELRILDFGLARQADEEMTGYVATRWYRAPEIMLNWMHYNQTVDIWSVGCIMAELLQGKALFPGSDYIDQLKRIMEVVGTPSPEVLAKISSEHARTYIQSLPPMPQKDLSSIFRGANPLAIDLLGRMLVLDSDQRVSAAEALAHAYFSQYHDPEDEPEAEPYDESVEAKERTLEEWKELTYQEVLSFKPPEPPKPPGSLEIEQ
Sequence of p38 kinase (Q16539 whole entry): as the sequence (Q16539 whole entry) above

| Molecule | IC50 [1] | IC50 [2] | IC50 [3] | IC50 ratio β/α [3] | Fold increase Piperidinyl/Piperazinyl [1] |
| --- | --- | --- | --- | --- | --- |
| 4-(4-benzyl piperazinyl)-indole-2-carboxamide [Piperazinyl 2] | > 30 µM | – | – | – | – |
| CC1CC(Cc2ccccc2)CCN1C(=O)c1ccc2[nH]ccc2c1 (stereo not shown) [Example 18] | – | 0.28 µM | – | – | – |
| O=C(c1c[nH]c2ccccc12)N1CCN(Cc2ccccc2)CC1 [Piperazinyl 3, reference compound] | 4.74 µM | – | 34 µM | 7.17 | – |
| O=C(c1cccc2[nH]ccc12)N1CCN(Cc2ccccc2)CC1 [Piperazinyl 4, reference compound] | 1.54 µM | – | 24 µM | 15.6 | – |
| O=C(c1ccc2[nH]ccc2c1)N1CCN(Cc2ccccc2)CC1 [Piperazinyl 5] | – | – | 25.8 µM | 15.1 | – |
| O=C(c1ccc2cc[nH]c2c1)N1CCN(Cc2ccccc2)CC1 [Piperazinyl 6] | 5.52 µM | – | 39.1 µM | 7.08 | – |
| O=C(c1cccc2cc[nH]c12)N1CCN(Cc2ccccc2)CC1 [Piperazinyl 7] | > 30 µM | – | – | – | – |
| O=C(c1cc2ccccc2[nH]1)N1CCC(Cc2ccccc2)CC1 [Piperidinyl 2] | 2.66 µM | – | – | – | – |
| O=C(c1c[nH]c2ccccc12)N1CCC(Cc2ccccc2)CC1 [Piperidinyl 3] | 0.163 µM | – | 1.77 µM | 10.9 | 29.1 |
| O=C(c1cccc2[nH]ccc12)N1CCC(Cc2ccccc2)CC1 [Piperidinyl 4, 4-benzylpiperidinyl-indoie-4-carboxamide] | 0.159 µM | – | 2.43 µM | 15.3 | 9.7 |
| O=C(c1ccc2[nH]ccc2c1)N1CCC(Cc2ccccc2)CC1 [Piperidinyl 5, 4-benzylpiperidinyl-indole-5-carboxamide] | 0.15 µM | – | 3.02 µM | – | – |
| O=C(c1ccc2cc[nH]c2c1)N1CCC(Cc2ccccc2)CC1 [Piperidinyl 6, 4-benzylpiperidinyl-indole-6-carboxamide] | – | – | 3.83 µM | – | – |
| O=C(c1cccc2cc[nH]c12)N1CCC(Cc2ccccc2)CC1 [Piperidinyl 7] | 7.04 µM | – | – | – | >4.3 |
